Assay results: PubChem BioAssay AID206 (DTP/NCI, 2004)
Several values for one entry are separate records, joined by “and”; a condition that tells them apart may be missing. Identical values can stand only once. Records with an inconclusive call do not appear.

Tested on: nude mice, HT29 intrarenal xenograft, tumor weight T/C
Assay: NCI In Vivo Anticancer Drug Screen. Data for tumor model HT29;CX-1 Human Adenocarcinoma (MER+) (intrarenal inoculation) in NU/NU Swiss (nude) mice
Details: endpoint: mean tumor weight change, higher = larger tumour
Method in brief: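 Compounds were given to mice carrying transplantable tumors; a vehicle-dosed group served as control. The endpoint measured in each group was compared as a T/C quotient.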

[1] = dose: 300.0 mg/kg/injection, schedule: Q04DX004 (sc), vehicle: Klucel (hydroxypropylcellulose) (HPC)
[2] = dose: 600.0 mg/kg/injection, schedule: Q04DX004 (sc), vehicle: Klucel (hydroxypropylcellulose) (HPC)
[3] = dose: 1200.0 mg/kg/injection, schedule: Q04DX004 (sc), vehicle: Klucel (hydroxypropylcellulose) (HPC)

CN(C)/N=N/c1nc[nH]c1C(N)=O
T/C (dose: 100.0 mg/kg/injection, schedule: Q01DX010 (sc), vehicle: Klucel (hydroxypropylcellulose) (HPC)): 90 % of control and 109 % of control
T/C (dose: 400.0 mg/kg/injection, schedule: Q01DX010 (sc), vehicle: Klucel (hydroxypropylcellulose) (HPC)): 77 % of control

Nc1ncnc2c1ncn2C1OC(CO)C(O)C1O (configuration not stated)
T/C (dose: 37.5 mg/kg/injection, schedule: Q04DX004 (sc), vehicle: saline): 97 % of control
T/C (dose: 75.0 mg/kg/injection, schedule: Q04DX004 (sc), vehicle: saline): 84 % of control
T/C (dose: 150.0 mg/kg/injection, schedule: Q04DX004 (sc), vehicle: Klucel (hydroxypropylcellulose) (HPC)): 67 % of control
T/C (dose: 150.0 mg/kg/injection, schedule: Q04DX004 (sc), vehicle: saline): 44 % of control
T/C [1]: 78 % of control
T/C [2]: 94 % of control
T/C [3]: 66 % of control

COc1cc(C)c2c(c1C=O)Oc1c(c(C)c(O)c3c1C(O)OC3=O)OC2=O (configuration not stated)
T/C (dose: 50.0 mg/kg/injection, schedule: Q01DX010 (sc), vehicle: saline): 68 % of control
T/C (dose: 200.0 mg/kg/injection, schedule: Q01DX010 (sc), vehicle: saline): 50 % of control

ClCC[N+]12CC[N+](CCCl)(CC1)C2
T/C (dose: 50.0 mg/kg/injection, schedule: Q01DX010 (sc), vehicle: saline with Tween-80): 37 % of control
T/C (dose: 75.0 mg/kg/injection, schedule: Q04DX004 (sc), vehicle: water): 101 % of control
T/C (dose: 100.0 mg/kg/injection, schedule: Q01DX010 (sc), vehicle: saline with Tween-80): 90 % of control
T/C (dose: 150.0 mg/kg/injection, schedule: Q04DX004 (sc), vehicle: water): 107 % of control
T/C (dose: 200.0 mg/kg/injection, schedule: Q01DX010 (sc), vehicle: saline with Tween-80): 96 % of control
T/C (dose: 300.0 mg/kg/injection, schedule: Q04DX004 (sc), vehicle: water): 98 % of control and 101 % of control
T/C (dose: 600.0 mg/kg/injection, schedule: Q04DX004 (sc), vehicle: water): 43 % of control

CNC(=O)OCc1c(COC(=O)NC)c(-c2ccccc2)n(C)c1-c1ccccc1
T/C (dose: 50.0 mg/kg/injection, schedule: Q04DX004 (sc), vehicle: distilled water + Tween-80): 44 % of control
T/C (dose: 200.0 mg/kg/injection, schedule: Q04DX004 (sc), vehicle: distilled water + Tween-80): 68 % of control
T/C (dose: 400.0 mg/kg/injection, schedule: Q04DX004 (sc), vehicle: distilled water + Tween-80): 104 % of control

Cc1c(N)nc(C(CC(N)=O)NCC(N)C(N)=O)nc1C(=O)NC(C(=O)NC(C)C(O)C(C)C(=O)NC(C(=O)NCCc1nc(-c2nc(C(=O)NCCCNC(C)c3ccccc3)cs2)cs1)C(C)O)C(OC1OC(CO)C(O)C(O)C1OC1OC(CO)C(O)C(OC(N)=O)C1O)c1cnc[nH]1 (configuration not stated)
T/C (dose: 2.0 mg/kg/injection, schedule: Q01DX010 (sc), vehicle: saline): 64 % of control
T/C (dose: 4.0 mg/kg/injection, schedule: Q01DX010 (sc), vehicle: saline): 65 % of control
T/C (dose: 8.0 mg/kg/injection, schedule: Q01DX010 (sc), vehicle: saline): 76 % of control
T/C (dose: 16.0 mg/kg/injection, schedule: Q01DX010 (sc), vehicle: saline): 65 % of control

C[Si](C)(C)OSc1ccccc1[N+](=O)[O-]
T/C [1]: 79 % of control
T/C [2]: 61 % of control
T/C [3]: 107 % of control
T/C (dose: 2400.0 mg/kg/injection, schedule: Q04DX004 (sc), vehicle: Klucel (hydroxypropylcellulose) (HPC)): 93 % of control

CN(C)C(=O)SC1=C(c2c(Cl)cccc2Cl)C(=O)c2ccccc21
T/C [1]: 95 % of control
T/C [2]: 158 % of control

CC1=CC2C(O)(CC(CO)=CC3C4C(C)(C)C4(OC(=O)c4ccccc4)C(OC(=O)c4ccccc4)C(C)C32O)C1=O (configuration not stated)
T/C (dose: 5.0 mg/kg/injection, schedule: Q04DX004 (sc), vehicle: saline with Tween-80): 43 % of control
